≈ marks a conversion by molar mass, not a printed value. Values belong to the molecule of their own block, whether it stands above or below them. Square brackets hold non-standard residues; d marks the D form. Peptide text beside a SMILES is read from it. Phe(4-Cl) = N[CH](Cc1ccc(Cl)cc1)C(=O)O; Phe(4-F) = N[CH](Cc1ccc(F)cc1)C(=O)O
Assays:
AMPK phosphorylation [1] = experiment: AMPK phosphorylation activity in mouse adipocytes (Western blot); type: cell-based; details: 3T3-L1, 10 μM, 24 hours; for AMPK phosphorylation activity (fold change): APN5 = 1.0
Description: There were confirmed effects of the peptide derivatives of the present disclosure on the expression and receptor activity of adiponectin in mouse adipocytes as a main adiponectin production site. A mouse adipocyte cell line 3T3-L1 was treated with each of the peptide derivatives of the present disclosure at a concentration of 10 μM and cultured for 24 hours, and then cells were obtained. Thereafter, the proteins were extracted and the effect on AMPK phosphorylation, which was responsible for the main downstream signaling of adiponectin, was confirmed by Western blot.

[2] = Metabolic stability test, rat liver microsomes; type: in vitro ADME; details: NADPH, 37° C.; for remaining at 0.5 h, 1 μM: pH 7.4, rat liver microsomes 0.5 mg/ml, 30 m
[3] = Metabolic stability test, mouse liver microsomes; type: in vitro ADME; details: NADPH, 37° C.; for remaining at 0.5 h, 1 μM: pH 7.4, mouse liver microsomes 0.5 mg/ml, 30 m
CYP1A2 = target: T1, CYP1A2 (Homo sapiens, UniProt P05177); details: microsomes, 10 µM
T1 sequence (P05177 1-516): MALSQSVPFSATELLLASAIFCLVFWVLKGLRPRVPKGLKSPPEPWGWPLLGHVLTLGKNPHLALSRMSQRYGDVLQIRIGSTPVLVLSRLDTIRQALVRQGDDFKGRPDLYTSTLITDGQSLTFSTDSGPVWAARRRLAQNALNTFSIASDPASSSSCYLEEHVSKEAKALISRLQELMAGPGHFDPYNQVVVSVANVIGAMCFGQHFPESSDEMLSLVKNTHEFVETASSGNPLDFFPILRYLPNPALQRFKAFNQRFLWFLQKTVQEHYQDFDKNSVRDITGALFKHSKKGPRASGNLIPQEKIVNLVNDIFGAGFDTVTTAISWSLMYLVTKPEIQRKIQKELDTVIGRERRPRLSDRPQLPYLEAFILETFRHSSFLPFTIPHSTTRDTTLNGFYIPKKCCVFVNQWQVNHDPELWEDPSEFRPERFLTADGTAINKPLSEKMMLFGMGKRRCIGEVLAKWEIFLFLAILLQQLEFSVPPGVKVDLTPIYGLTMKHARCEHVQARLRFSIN
Description: (§1) Metabolites of each CYP isoenzyme indicator drug produced through the reaction were analyzed by LC-MS/MS using the Shimadzu Nexera XR system and TSQ vantage (Thermo).

CYP2C19 = CYP2C19 (Homo sapiens, UniProt P33261); details: microsomes, 10 µM
Description: as §1

CYP2C9 = CYP2C9 (Homo sapiens, UniProt P11712); details: microsomes, 10 µM
Description: as §1

CYP2D6 = CYP2D6 (Homo sapiens, UniProt P10635); details: microsomes, 10 µM
Description: as §1

CYP3A4 = CYP3A4 (Homo sapiens, UniProt P08684); details: microsomes, 10 µM
Description: as §1

in vitro [4] = details: human, plasma
in vitro [5] = details: human, microsomes, pH 7.4
Solubility test = details: kinetic from dmso stock
[6] = Plasma stability test, rat plasma; details: for remaining at 0.5 h, 1 μM / remaining at 2 h, 1 μM: rat, plasma
AMPK phosphorylation [7] = experiment: Concentration dependence of AMPK phosphorylation activity (Western blot); type: cell-based, mouse; details: 3T3-L1, 0, 0.01, 0.1, 1, 10, and 100 μM, 24 hours
Description: A mouse adipocyte cell line 3T3-L1 was treated with the peptide derivative of the present disclosure at a series of concentrations of 0, 0.01, 0.1, 1, 10, and 100 μM and cultured for 24 hours, and then cells were obtained. Thereafter, the protein was extracted and the effect of the peptide derivative on AMPK phosphorylation in a concentration-dependent manner was confirmed by Western blot.

physchem = details: pH 7.4, aqueous buffer, kinetic from dmso stock
in vitro [8] = details: rat, plasma
[9] = Plasma stability test, human plasma; details: for remaining at 0.5 h, 1 μM / remaining at 2 h, 1 μM: human, plasma
[10] = Metabolic stability test, human liver microsomes; details: for remaining at 0.5 h, 1 μM: human, microsomes, pH 7.4
adiponectin receptor 1 = target: T2, adiponectin receptor 1 (Mus musculus, UniProt Q91VH1); experiment: AMPK phosphorylation activity after knockdown of adiponectin receptor 1 (siRNA, Western blot); type: cell-based; details: 3T3-L1, adiponectin receptor 1 siRNA, 10 μM, 24 hours
T2 construct: a mouse adipocyte cell line 3T3-L1 was treated with siRNA of an adiponectin receptor 1 to be knocked down; endogenous in cells; host or cells: 3T3-L1 mouse adipocyte cell line
T2 sequence (Q91VH1 1-375): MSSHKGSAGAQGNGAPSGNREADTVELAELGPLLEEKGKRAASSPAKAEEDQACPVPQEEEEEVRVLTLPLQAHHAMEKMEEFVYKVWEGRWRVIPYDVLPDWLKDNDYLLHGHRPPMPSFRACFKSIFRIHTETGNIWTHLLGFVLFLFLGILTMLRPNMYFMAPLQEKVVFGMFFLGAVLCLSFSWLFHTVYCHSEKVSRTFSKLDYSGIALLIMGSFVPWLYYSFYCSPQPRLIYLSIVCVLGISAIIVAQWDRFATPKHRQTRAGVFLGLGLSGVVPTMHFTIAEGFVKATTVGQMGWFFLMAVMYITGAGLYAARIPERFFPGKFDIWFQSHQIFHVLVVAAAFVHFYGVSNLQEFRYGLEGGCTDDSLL
Description: In order to verify whether the peptide derivative of the present disclosure bound to an adiponectin receptor 1, a mouse adipocyte cell line 3T3-L1 was treated with siRNA of an adiponectin receptor 1 to be knocked down, and each of the peptide derivatives of the present disclosure was treated at 10 μM and cultured for 24 hours, and then cells were obtained. Thereafter, the proteins were extracted and it was confirmed by Western blot whether AMPK phosphorylation activity, which had been increased by the peptide derivatives, was lost.

[11] = test system: 3T3-L1 adipocytes, RD muscle cells, keratinocytes, and fibroblasts; experiment: Cytotoxicity in vitro (MTT); type: cell-based; details: 0, 0.1, 1, 10, 100, and 500 μM, 24 hours
[12] = PRISMA HT buffer, pH 7.4, aqueous buffer

CYP2C19, sequence (P33261 whole entry): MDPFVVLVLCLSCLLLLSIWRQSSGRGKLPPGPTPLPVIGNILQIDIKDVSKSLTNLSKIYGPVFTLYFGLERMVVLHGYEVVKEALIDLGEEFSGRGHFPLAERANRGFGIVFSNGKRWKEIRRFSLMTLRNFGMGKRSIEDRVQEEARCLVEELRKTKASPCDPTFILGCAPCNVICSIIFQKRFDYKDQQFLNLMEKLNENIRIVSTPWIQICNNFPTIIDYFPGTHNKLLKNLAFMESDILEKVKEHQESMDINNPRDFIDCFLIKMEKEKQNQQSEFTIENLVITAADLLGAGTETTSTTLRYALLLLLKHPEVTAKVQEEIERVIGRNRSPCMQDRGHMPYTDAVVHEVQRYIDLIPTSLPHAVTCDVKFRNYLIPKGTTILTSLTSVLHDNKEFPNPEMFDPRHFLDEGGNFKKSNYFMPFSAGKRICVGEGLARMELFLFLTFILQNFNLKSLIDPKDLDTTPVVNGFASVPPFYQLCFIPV
CYP3A4, sequence (P08684 whole entry): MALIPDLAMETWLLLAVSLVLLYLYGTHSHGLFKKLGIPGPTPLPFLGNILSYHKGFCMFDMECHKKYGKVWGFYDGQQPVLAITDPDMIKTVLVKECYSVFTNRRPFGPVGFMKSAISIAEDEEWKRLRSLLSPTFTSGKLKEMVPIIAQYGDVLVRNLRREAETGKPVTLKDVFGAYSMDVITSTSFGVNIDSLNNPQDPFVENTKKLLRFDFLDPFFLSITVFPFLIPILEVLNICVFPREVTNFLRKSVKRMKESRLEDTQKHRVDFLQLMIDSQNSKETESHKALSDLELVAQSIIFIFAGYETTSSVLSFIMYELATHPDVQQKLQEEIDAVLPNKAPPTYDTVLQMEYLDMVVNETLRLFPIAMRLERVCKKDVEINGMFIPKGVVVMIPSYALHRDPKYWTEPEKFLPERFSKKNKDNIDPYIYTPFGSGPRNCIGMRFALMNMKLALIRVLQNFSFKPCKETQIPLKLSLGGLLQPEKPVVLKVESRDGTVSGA
CYP2D6, sequence (P10635 whole entry): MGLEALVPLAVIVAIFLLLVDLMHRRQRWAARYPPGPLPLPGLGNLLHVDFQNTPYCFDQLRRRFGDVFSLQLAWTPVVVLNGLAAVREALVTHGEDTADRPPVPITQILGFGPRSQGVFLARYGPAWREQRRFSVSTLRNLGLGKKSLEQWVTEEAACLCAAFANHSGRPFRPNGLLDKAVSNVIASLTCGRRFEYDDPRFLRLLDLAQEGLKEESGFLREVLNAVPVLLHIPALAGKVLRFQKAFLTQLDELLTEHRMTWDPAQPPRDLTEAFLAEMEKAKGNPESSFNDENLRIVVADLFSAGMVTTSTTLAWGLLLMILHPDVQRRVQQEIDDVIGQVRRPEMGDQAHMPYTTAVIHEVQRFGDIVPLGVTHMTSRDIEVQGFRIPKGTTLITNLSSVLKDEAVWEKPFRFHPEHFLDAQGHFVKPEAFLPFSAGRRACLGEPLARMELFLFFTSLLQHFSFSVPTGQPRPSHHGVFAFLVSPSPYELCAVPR
CYP2C9, sequence (P11712 whole entry): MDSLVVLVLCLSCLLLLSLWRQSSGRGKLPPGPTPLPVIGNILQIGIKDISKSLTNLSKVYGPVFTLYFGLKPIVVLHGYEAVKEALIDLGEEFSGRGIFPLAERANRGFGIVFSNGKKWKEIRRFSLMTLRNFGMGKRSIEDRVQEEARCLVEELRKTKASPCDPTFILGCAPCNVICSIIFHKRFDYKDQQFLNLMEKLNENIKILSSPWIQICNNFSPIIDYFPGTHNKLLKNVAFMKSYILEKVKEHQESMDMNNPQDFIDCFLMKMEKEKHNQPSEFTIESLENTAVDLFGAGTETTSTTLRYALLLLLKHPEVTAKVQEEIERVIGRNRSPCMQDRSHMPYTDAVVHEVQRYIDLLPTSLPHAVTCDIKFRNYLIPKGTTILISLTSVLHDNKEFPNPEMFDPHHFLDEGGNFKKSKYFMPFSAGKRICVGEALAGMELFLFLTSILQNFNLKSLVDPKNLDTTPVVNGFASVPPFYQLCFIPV

- solubility at 24 h (physchem): 136 µg/mL (≈ 204 µM)
SMILES: CC(C)CC(NC(=O)CN)C(=O)NC(Cc1ccc(F)cc1)C(=O)NC(Cc1ccc(O)cc1)C(=O)NC(Cc1ccccc1)C(N)=O (stereo not drawn) [DS-51, NH2-GLF(4-F)YF-NH2] (H-GL[Phe(4-F)]YF-NH2; configuration not given here)
- AMPK phosphorylation activity (fold change) (AMPK phosphorylation [1]): 1.3 fold change
- AMPK phosphorylation activity compared to APN5 (in words) (AMPK phosphorylation [1]): significant effect of increasing AMPK phosphorylation activity
- AMPK phosphorylation activity after knockdown of the adiponectin receptor 1 (adiponectin receptor 1): decreased the AMPK phosphorylation activity after knockdown of the adiponectin receptor 1

- solubility kinetic at 24 h (Solubility test; [12]): 157 µg/mL (≈ 530 µM)
SMILES: O=C(O)Cc1ccccc1Nc1c(Cl)cccc1Cl [Diclofenac]

- solubility kinetic at 24 h (Solubility test; [12]): 23.8 µg/mL (≈ 111 µM)
SMILES: Nc1ccc(/N=N/c2ccccc2)c(N)n1 [Phenazopyridine]

More lines, now with the values behind:

SMILES: CC(C)C[C@H](NC(=O)CN)C(=O)N[C@@H](Cc1ccc(O)cc1)C(=O)N[C@@H](Cc1ccc(O)cc1)C(=O)N[C@@H](Cc1ccccc1)C(=O)O [APN5, NH2-GLYYF-OH, reference compound]
- AMPK phosphorylation activity (fold change) (AMPK phosphorylation [1]): 1.0 fold change
- remaining at 0.5 h, 1 μM [2]: 1.3%
- remaining at 0.5 h, 1 μM [3]: 9.5%
- CYP inhibition (% of control activity) CYP1A2 (CYP1A2): 88.8 % of control activity
- CYP inhibition (% of control activity) CYP2C19 (CYP2C19): 98.5 % of control activity
- CYP inhibition (% of control activity) CYP2C9 (CYP2C9): >100 % of control activity
- CYP inhibition (% of control activity) CYP2D6 (CYP2D6): 92.3 % of control activity
- CYP inhibition (% of control activity) CYP3A4 (CYP3A4): 82.9 % of control activity
- remaining at 0.5 h, 1 μM (in vitro [4]): < 1%
- remaining at 2 h, 1 μM (in vitro [4]): < 1%
- remaining at 0.5 h, 1 μM (in vitro [5]): 1.7%
- solubility kinetic at 24 h (Solubility test; [12]): 8.2 µg/mL (≈ 12.4 µM)
- remaining at 0.5 h, 1 μM [6]: 83.1%
- remaining at 2 h, 1 μM [6]: 70.5%

SMILES: CC(=O)NC(CC(=O)O)C(=O)NC(Cc1ccc(O)cc1)C(=O)NC(Cc1ccc(O)cc1)C(=O)NC(Cc1ccccc1)C(=O)O (stereo not drawn) [DS-28, AcNH-DYYF-OH] (Ac-DYYF-OH; configuration not given here)
- AMPK phosphorylation activity (fold change) (AMPK phosphorylation [1]): 1.9 fold change
- concentration dependence of AMPK phosphorylation activity (AMPK phosphorylation [7]): increased AMPK phosphorylation activity in a concentration-dependent manner
- remaining at 0.5 h, 1 μM [2]: 85.8%
- remaining at 0.5 h, 1 μM [3]: 96.6%
- CYP inhibition (% of control activity) CYP1A2 (CYP1A2): 81.7 % of control activity
- CYP inhibition (% of control activity) CYP2C19 (CYP2C19): 87.2 % of control activity
- CYP inhibition (% of control activity) CYP2C9 (CYP2C9): 96.9 % of control activity
- CYP inhibition (% of control activity) CYP2D6 (CYP2D6): 86.1 % of control activity
- CYP inhibition (% of control activity) CYP3A4 (CYP3A4): 95.5 % of control activity
- solubility at 24 h (physchem): 321 µg/mL (≈ 495 µM)
- remaining at 0.5 h, 1 μM (in vitro [4]): 17.6%
- remaining at 2 h, 1 μM (in vitro [4]): 3.1%
- remaining at 0.5 h, 1 μM (in vitro [8]): > 100%
- remaining at 2 h, 1 μM (in vitro [8]): > 100%
- remaining at 0.5 h, 1 μM (in vitro [5]): 93.8%

SMILES: Cc1cc(CC(NC(=O)C(CC(=O)O)NC(=O)CN)C(=O)NC(Cc2ccc(O)cc2)C(=O)NC(Cc2ccccc2)C(N)=O)cc(C)c1O (stereo not drawn) [DS-41, NH2-GDY(Dmt)YF-NH2]
- remaining at 0.5 h, 1 μM [2]: 75.1%
- remaining at 0.5 h, 1 μM [3]: 95.2%
- remaining at 0.5 h, 1 μM [6]: > 100%
- remaining at 2 h, 1 μM [6]: 99.6%
- remaining at 0.5 h, 1 μM [9]: < 1%
- remaining at 2 h, 1 μM [9]: < 1%
- remaining at 0.5 h, 1 μM [10]: 95.8%

SMILES: O=C(COc1ccc(C(=O)c2ccccc2)cc1)NC1CCN(Cc2ccccc2)CC1 [DS-43, adiporon, reference compound]
- Metabolic stability (% remaining) Rat, 30 m ([2]; rat liver microsomes 0.5 mg/ml, 1 μM): 2.3 % remaining
- Metabolic stability (% remaining) Mouse, 30 m ([3]; mouse liver microsomes 0.5 mg/ml, 1 μM): 3.1 % remaining
- CYP inhibition (% of control activity) CYP2C19 (CYP2C19): 66.0 % of control activity
- CYP inhibition (% of control activity) CYP2D6 (CYP2D6): 30.3 % of control activity
- CYP inhibition (% of control activity) CYP3A4 (CYP3A4): 90.3 % of control activity
- solubility kinetic at 24 h (Solubility test; PRISMA HT buffer (diluted 1:40 in distilled water), pH 7.4, pH 7.4, aqueous buffer): 43.7 µg/mL (≈ 102 µM)
- Plasma stability (% remaining) Rat, 30 m ([6]; rat plasma, 1 μM, 37° C., 30 m): >100 % remaining
- Plasma stability (% remaining) Rat, 120 m ([6]; rat plasma, 1 μM, 37° C., 120 m): >100 % remaining
- Plasma stability (% remaining) Human, 30 m ([9]; human plasma, 1 μM, 37° C., 30 m): >100 % remaining
- Plasma stability (% remaining) Human, 120 m ([9]; human plasma, 1 μM, 37° C., 120 m): >100 % remaining
- Metabolic stability (% remaining) Human, 30 m ([10]; human liver microsomes 0.5 mg/ml, 1 μM, NADPH, 37° C., 30 m): 54.9 % remaining

SMILES: CC(C)CC(NC(=O)CN)C(=O)NC(Cc1ccc(O)cc1)C(=O)NC(Cc1ccc(O)cc1)C(=O)N(C)C(Cc1ccccc1)C(N)=O (stereo not drawn) [DS-48, NH2-GLYYF(N-Me)-NH2]
- AMPK phosphorylation activity (fold change) (AMPK phosphorylation [1]): 1.5 fold change
- AMPK phosphorylation activity compared to APN5 (in words) (AMPK phosphorylation [1]): significant effect of increasing AMPK phosphorylation activity
- AMPK phosphorylation activity after knockdown of the adiponectin receptor 1 (adiponectin receptor 1): decreased the AMPK phosphorylation activity after knockdown of the adiponectin receptor 1
- cytotoxicity [11]: no toxicity
- concentration dependence of AMPK phosphorylation activity (AMPK phosphorylation [7]): increased AMPK phosphorylation activity in a concentration-dependent manner
- remaining at 0.5 h, 1 μM [2]: 2.8%
- remaining at 0.5 h, 1 μM [3]: 20.6%
- solubility at 24 h (Solubility test; PRISMA HT test buffer, pH 7.4, aqueous buffer): 334 µg/mL (≈ 495 µM)
- remaining at 0.5 h, 1 μM [6]: > 100%
- remaining at 2 h, 1 μM [6]: 84.9%
- remaining at 0.5 h, 1 μM [9]: 1.1%
- remaining at 2 h, 1 μM [9]: < 1%
- remaining at 0.5 h, 1 μM [10]: 21.6%

SMILES: CC(C)CC(NC(=O)CN)C(=O)NC(Cc1ccc(Cl)cc1)C(=O)NC(Cc1ccc(O)cc1)C(=O)NC(Cc1ccccc1)C(N)=O (stereo not drawn) [DS-52, NH2-GLF(4-C1)YF-NH2] (H-GL[Phe(4-Cl)]YF-NH2; configuration not given here)
- AMPK phosphorylation activity (fold change) (AMPK phosphorylation [1]): 1.2 fold change
- AMPK phosphorylation activity compared to APN5 (in words) (AMPK phosphorylation [1]): significant effect of increasing AMPK phosphorylation activity
- AMPK phosphorylation activity after knockdown of the adiponectin receptor 1 (adiponectin receptor 1): decreased the AMPK phosphorylation activity after knockdown of the adiponectin receptor 1

From patent US20250049891A1, “NOVEL PEPTIDE DERIVATIVE DERIVED FROM ADIPONECTIN AND USE THEREOF” (SEOUL NATIONAL UNIVERSITY HOSPITAL, priority 2021, published 2025)
